Measurements: patent publication US9029377B2, “Platelet-activating factor receptor antagonists” (Merck Sharp & Dohme Corp., priority 2009, dated 2015)

Molecular target: PAFR (Homo sapiens, UniProt P25105)
Experiment: PAF Binding Assay (PAFR binding)

PAFR, sequence (P25105 whole entry): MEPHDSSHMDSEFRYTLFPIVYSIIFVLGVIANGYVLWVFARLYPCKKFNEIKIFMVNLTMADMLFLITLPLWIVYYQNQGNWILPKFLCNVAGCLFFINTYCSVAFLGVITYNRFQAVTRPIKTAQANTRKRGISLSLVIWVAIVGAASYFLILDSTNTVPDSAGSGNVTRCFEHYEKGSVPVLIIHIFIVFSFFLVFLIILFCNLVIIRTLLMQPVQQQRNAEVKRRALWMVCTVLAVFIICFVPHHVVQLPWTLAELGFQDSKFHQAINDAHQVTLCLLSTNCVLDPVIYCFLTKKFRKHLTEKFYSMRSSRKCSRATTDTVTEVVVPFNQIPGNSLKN

IC50 [nM]	Compound
0.2	Cc1nncn1[C@@H]1CCC[C@H](NS(=O)(=O)c2ccc(-c3ccc(OC(F)(F)F)cc3)c(F)c2)C1 [Compound 2Fa, 2-fluoro-N-[(1S,3R)-3-(3-methyl-4H-1,2,4-triazol-4-yl)cyclohexyl]-4′-(trifluoromethoxy)biphenyl-4-sulfonamide]
6.6	Nc1cnc(-c2cc(C(F)(F)F)cc(S(=O)(=O)N[C@H]3CCC[C@@H](n4cnnc4)C3)c2)cn1 [Compound 3Aw, 3-(5-aminopyrazin-2-yl)-N-[(1S,3R)-3-(4H-1,2,4-triazol-4-yl)cyclohexyl]-5-(trifluoromethyl)benzenesulfonamide]
11	CCc1cc(-c2ccc(OC(F)(F)F)cc2)ccc1S(=O)(=O)N[C@@H]1C[C@H](n2cnnc2)CC(F)(F)C1 [Compound 2Cal, N-[(1R,5S)-3,3-difluoro-5-(4H-1,2,4-triazol-4-yl)cyclohexyl]-3-ethyl-4′-(trifluoromethoxy)biphenyl-4-sulfonamide]
0.9	CCc1cc(-c2ccc(OC(F)(F)F)cc2)ccc1S(=O)(=O)N[C@@H]1C[C@H](n2cnnc2C)CC(F)(F)C1 [Compound 2Cbd, N-[(1R,5S)-3,3-difluoro-5-(3-methyl-4H-1,2,4-triazol-4-yl)cyclohexyl]-3-ethyl-4′-(trifluoromethoxy)biphenyl-4-sulfonamide]
3.4	Cc1nncn1[C@@H]1CCC[C@H](NS(=O)(=O)c2ccc(-c3ccc(OCC(F)(F)F)nc3)cc2F)C1 [Compound 2Jh, 2-fluoro-N-[(1S,3R)-3-(3-methyl-4H-1,2,4-triazol-4-yl)cyclohexyl]-4-[6-(2,2,2-trifluoroethoxy)pyridin-3-yl]benzenesulfonamide]
5.9	O=S(=O)(N[C@H]1CCC[C@@H](n2cnnc2)C1)c1cc(-c2ccccc2)cc(C(F)(F)F)c1 [Compound 3Ae, N-[(1S,3R)-3-(4H-1,2,4-triazol-4-yl)cyclohexyl]-5-(trifluoromethyl)biphenyl-3-sulfonamide]
3.1	O=S(=O)(N[C@H]1CCC[C@@H](n2cnnc2)C1)c1cc(-c2cccn3cnnc23)cc(C(F)(F)F)c1 [Compound 3d]

Continued, compound first:

Compound	IC50 [nM]
CCc1cc(-c2ccc(OC(C)C)cc2)ccc1S(=O)(=O)N[C@H]1CCC[C@@H](n2cnnc2)C1 [Compound 2Aaj, 3-ethyl-4′-isopropoxy-N-[(1S,3R)-3-(4H-1,2,4-triazol-4-yl)cyclohexyl]biphenyl-4-sulfonamide]	0.8
CCc1cc(-c2ccc(C#N)nc2)ccc1S(=O)(=O)N[C@H]1CCC[C@@H](n2cnnc2)C1 [Compound 2Ah, 4-(6-cyanopyridin-3-yl)-2-ethyl-N-[(1S,3R)-3-(4H-1,2,4-triazol-4-yl)cyclohexyl]benzenesulfonamide]	570
O=S(=O)(N[C@H]1CCC[C@@H](n2cnnc2C2CC2)C1)c1ccc(-c2noc(C3CC3)n2)cc1OC(F)(F)F [Compound 2Bb, 4-(5-cyclopropyl-1,2,4-oxadiazol-3-yl)-N-[(1S,3R)-3-(3-cycloropyl-4H-1,2,4-triazol-4-yl)cyclohexyl]-2-(trifluoromethoxy)benzenesulfonamide]	4.3
3-bromo-N-[(1S,3R)-3-(4H-1,2,4-triazol-4-yl)cyclohexyl]-5-(trifluoromethyl)benzenesulfonamide [Compound 3b]	0.9
CCc1cc(OCCC(F)(F)F)ccc1S(=O)(=O)N[C@H]1CCC[C@@H](n2cnnc2)C1 [Compound 2Abk, 2-ethyl-N-[(1S,3R)-3-(4H-1,2,4-triazol-4-yl)cyclohexyl]-4-(3,3,3-trifluoropropoxy)benzenesulfonamide]	22
CCc1cc(-c2ccc(OC(C)C)nc2)ccc1S(=O)(=O)N[C@H]1CCC[C@@H](n2cnnc2C)C1 [Compound 2Abc, 2-ethyl-4-(6-isopropoxypyridin-3-yl)-N-[(1S,3R)-3-(3-methyl-4H-1,2,4-triazol-4-yl)cyclohexyl]benzenesulfonamide]	0.5
Cc1nncn1[C@@H]1CCC[C@H](NS(=O)(=O)c2ccc(OCCCCF)cc2)C1 [Compound 2Nad, 4-(4-fluorobutoxy)-N-[(1S,3R)-3-(3-methyl-4H-1,2,4-triazol-4-yl)cyclohexyl]benzenesulfonamide]	11
